Where only a bound is given, the exact number is not on record here.

For 12 compounds, IC50 results are on record in ChEMBL document CHEMBL1150531, “Acetylcholinesterase inhibition by fused dihydroquinazoline compounds” (Bioorg Med Chem Lett, 1996).

Experiment [1] has as its target T1, Acetylcholinesterase (Rattus norvegicus, UniProt P37136).
T1 sequence (P37136 whole entry): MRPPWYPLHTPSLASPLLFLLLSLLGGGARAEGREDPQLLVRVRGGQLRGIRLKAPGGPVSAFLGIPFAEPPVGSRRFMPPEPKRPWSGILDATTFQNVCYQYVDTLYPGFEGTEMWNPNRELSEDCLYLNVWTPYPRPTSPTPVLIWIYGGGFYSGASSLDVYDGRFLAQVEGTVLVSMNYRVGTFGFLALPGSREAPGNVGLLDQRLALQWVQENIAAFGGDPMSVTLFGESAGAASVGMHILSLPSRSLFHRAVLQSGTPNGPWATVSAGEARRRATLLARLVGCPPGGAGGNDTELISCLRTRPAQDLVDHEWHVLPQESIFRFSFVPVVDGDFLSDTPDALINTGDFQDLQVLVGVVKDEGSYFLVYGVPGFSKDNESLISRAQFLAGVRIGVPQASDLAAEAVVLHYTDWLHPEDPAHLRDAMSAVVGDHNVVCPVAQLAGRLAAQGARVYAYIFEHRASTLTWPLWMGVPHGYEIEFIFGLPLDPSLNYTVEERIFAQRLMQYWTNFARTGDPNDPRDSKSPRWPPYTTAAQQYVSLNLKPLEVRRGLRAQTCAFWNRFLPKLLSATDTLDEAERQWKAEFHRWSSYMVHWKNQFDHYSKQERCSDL
Description: Inhibitory activity against acetylcholinesterase in rat brain

The target in experiment [2] is Acetylcholinesterase (Homo sapiens, UniProt P22303).
Acetylcholinesterase (Homo sapiens, UniProt P22303), sequence (P22303 whole entry): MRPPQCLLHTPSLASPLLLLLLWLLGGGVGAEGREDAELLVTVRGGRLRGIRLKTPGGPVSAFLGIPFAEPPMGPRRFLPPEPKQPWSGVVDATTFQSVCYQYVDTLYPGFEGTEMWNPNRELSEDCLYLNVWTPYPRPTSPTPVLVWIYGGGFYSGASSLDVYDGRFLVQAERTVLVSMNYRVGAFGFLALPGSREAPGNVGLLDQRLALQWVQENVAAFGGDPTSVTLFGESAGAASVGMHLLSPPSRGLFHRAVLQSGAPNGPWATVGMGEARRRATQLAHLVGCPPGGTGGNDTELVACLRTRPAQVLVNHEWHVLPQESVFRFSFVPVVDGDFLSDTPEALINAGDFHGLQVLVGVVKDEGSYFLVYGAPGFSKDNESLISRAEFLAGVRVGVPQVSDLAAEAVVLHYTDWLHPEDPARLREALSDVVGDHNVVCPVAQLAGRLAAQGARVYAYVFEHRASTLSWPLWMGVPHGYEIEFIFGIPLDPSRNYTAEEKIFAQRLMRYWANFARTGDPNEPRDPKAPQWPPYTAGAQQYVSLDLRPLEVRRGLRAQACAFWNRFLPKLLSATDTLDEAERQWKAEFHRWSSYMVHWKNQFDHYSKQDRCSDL
Description: Inhibitory activity against acetylcholinesterase in human RBC

As to `Clc1cccc2c1CN1CCCCCC1=N2`, it took 4.75 µM to reach half-maximal inhibition against Acetylcholinesterase [1] (IC50). This lies in the single-digit micromolar range.

For `c1ccc2c(c1)CN1CCCCCCC1=N2`, the concentration for half-maximal inhibition (IC50) was found to be 9.2 µM against Acetylcholinesterase [2] and 100 µM against Acetylcholinesterase [1].

Regarding `c1ccc2c(c1)CN1CCCCC1=N2`, the IC50 against Acetylcholinesterase [2] is 3.66 µM; against Acetylcholinesterase [1], over 100 µM.

Take `O=c1c2ccc(Cl)cc2nc2n1CCCCC2`: the IC50 at Acetylcholinesterase [2] and against Acetylcholinesterase [1] was over 100 µM in each case.

As for `c1ccc2c(c1)CN1CCCCCC1=N2`, the IC50 at Acetylcholinesterase [2] was 3.76 µM; against Acetylcholinesterase [1], 15 µM.

The compound `Clc1ccc2c(c1)CN1CCCCCC1=N2` came in with an IC50 against Acetylcholinesterase [1] of 9.3 µM.

At Acetylcholinesterase [1], `N=c1c2ccc(Cl)cc2nc2n1CCCCC2` returned a 50% inhibitory concentration (IC50) of 35.9 µM.

For `c1ccc2c(c1)CN1CCCCCCCC1=N2`, the concentration for half-maximal inhibition (IC50) on Acetylcholinesterase [2] was 13.5 µM; against Acetylcholinesterase [1] it was over 100 µM.

Consider `S=c1c2ccc(Cl)cc2nc2n1CCCCC2`, for which the concentration for half-maximal inhibition (IC50) against Acetylcholinesterase [2] and at Acetylcholinesterase [1] was over 100 µM in each case.

On to `c1ccc2c(c1)CN1CCCC1=N2`, for which the half-inhibitory concentration (IC50) against Acetylcholinesterase [2] came out at 3.72 µM; against Acetylcholinesterase [1], 18 µM.

As for `CCCCCCCNC(=O)Oc1ccc2c(c1)[C@]1(C)CCN(C)[C@@H]1N2C` [EPTASTIGMINE], the half-maximal inhibitory concentration (IC50) was 0.125 µM at Acetylcholinesterase [2] and 0.6 µM at Acetylcholinesterase [1].

`C/C=C1\[C@H]2C=C(C)C[C@]1(N)c1ccc(=O)[nH]c1C2` [HUPERZINE A] yielded a half-inhibitory concentration (IC50) on Acetylcholinesterase [1] of 0.094 µM.

One may read the IC50 as the concentration that inhibits the measured activity by half. A lower IC50 goes with inhibition by little substance.
